Laboratory results published in patent publication US6306847A, “Condensed purine derivatives” (Kyowa Hakko Kogyo Co., Ltd., priority 1996, dated 2001).
Structures can show the parent of a compound that is named as a salt. Where two headings read alike, the source gives them in different places.

Columns and labels:
[1] = target: T1, human adenosine A3 receptors (Homo sapiens, UniProt P0DMS8); assay: Test of adenosine A3 receptor binding ([125I]AB-MECA, transfected HEK293 cell homogenate); settings: for inhibition at 0.1 µM: read-out: The rate of inhibition (%) 10^-7 M; for inhibition at 0.01 µM: read-out: The rate of inhibition (%) 10^-8 M
T1 construct: expressed in transfected cells; host or cells: HEK293
T1 sequence (P0DMS8 1-318): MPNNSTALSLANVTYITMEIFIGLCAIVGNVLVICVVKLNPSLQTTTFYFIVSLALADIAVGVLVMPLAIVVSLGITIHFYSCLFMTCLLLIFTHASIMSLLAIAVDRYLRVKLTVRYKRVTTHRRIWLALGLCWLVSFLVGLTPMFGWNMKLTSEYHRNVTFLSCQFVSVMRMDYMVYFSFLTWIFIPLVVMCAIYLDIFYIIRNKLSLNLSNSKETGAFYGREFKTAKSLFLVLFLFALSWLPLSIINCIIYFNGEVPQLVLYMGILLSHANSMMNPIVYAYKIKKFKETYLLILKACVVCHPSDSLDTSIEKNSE
Experimental: The transfected HEK293 cells that expressed the human adenosine A3 receptors were homogenized in 5 mM tris(hydroxymethyl)aminomethane hydrochloric acid buffer containing 5 mM magnesium chloride (pH 7.6) by a Teflon homogenizer (Iuchiseieido Corp.). The resultant suspension was centrifuged (4000×g, 20 minutes), and a 50 mM tris(hydromethyl)aminomethane/10 mM magnesium chloride/hydrochloric acid buffer (pH 7.6) (referred to as "the Tris-HCl buffer" hereinafter) was added to the precipitate to generate the cell suspension ( the protein concentration 0.25 mg/ml). To the cell suspension was added adenosine deaminase so that the concentration was 2 U/ml, and the resultant mixture was used in the following binding experiment.
The glass fiber filter was transferred to a polypropylene tube, and the radioactivity was measured by a gamma counter (Packard Corp.).
(Rate of inhibition)=(A-B)/(C-D)×100
A: Amount of binding in the presence of the test compound
B: Amount of non-specific binding
C: Amount of total binding
D: Amount of non-specific binding

[2] = test system: compound 48/80 induced pruritic action; assay: Test of inhibition of compound 48/80 induced pruritic action (scratching behavior in mice); format: in vivo, ddy mice; settings: for (A) The number of scratching behavior/10 minutes: compound 48/80 0.5 mg/kg s.c., n=10; for (B) The rate of inhibition (%): number of scratching behavior relative to control group
Experimental: A group consisting of 10 ddy mice (Japanese SLC) having a body weight of […] was used in the test. After compound 5 was orally administered, 0.5 mg/kg of compound 48/80 was subcutaneously administered in a volume of 0.1 ml per 20 g. 10 minutes after administration of compound 48/80, the number of scratching behavior was measured for 10 minutes. The rate of inhibition of the group of mice administered with compound 5 relative to the number of scratching behavior of a control group was calculated, and ED50 was calculated from the rate of inhibition.

ddY mice = settings: mouse, in vivo
Description: A group consisting of three ddY mice (Japanese SLC) having a body weight of 19 to 21 g was used. One week after oral administration of compound 5, death of the mice was observed.

[3] = 10^-7 M test compound, [125I]AB-MECA 0.1 nM
[4] = 10^-8 M test compound, [125I]AB-MECA 0.1 nM

Compound | inhibition at 0.1 µM [1, 3] | inhibition at 0.01 µM [1, 4] | other results
CCCN1C(=O)N2CC(CC)N=C2c2[nH]c(-c3ccc(Br)cc3)nc21 (centres unmarked) [Compound 8, 2-(p-Bromophenyl)-8-ethyl-4-propyl-1,4,7,8-tetrahydro-5H-imidazo[2,1-i]purine-5-one hydrochloride] | – | – | inhibition at 0.1 µM [1]: 96%
CCC1CN2C(=O)N(CC)c3nc(-c4ccc(Br)cc4)[nH]c3C2=N1 (centres unmarked) [Compound 4, 2-(p-Bromophenyl)-4,8-diethyl-1,4,7,8-tetrahydro-5H-imidazo[2,1-i]purine-5-one hydrochloride] | – | – | inhibition at 0.1 µM [1]: 90%; inhibition at 0.01 µM [1]: 73%
CCN1C(=O)N2CC(C)N=C2c2[nH]c(-c3ccc(Br)cc3)nc21 (centres unmarked) [Compound 3, 2-(p-Bromophenyl)-4-ethyl-8-methyl-1,4,7,8-tetrahydro-5H-imidazo [2,1-i]-purine-5-one hydrochloride] | – | – | inhibition at 0.1 µM [1]: 96%; inhibition at 0.01 µM [1]: 65%
CCC1CN2C(=O)N(C)c3nc(-c4ccc(Br)cc4)[nH]c3C2=N1 (centres unmarked) [Compound 25, 2-(p-Bromophenyl)-8-ethyl-4-methyl-1,4,7,8-tetrahydro-5H-imidazo[2,1-i]purine-5-one hydrochloride] | – | – | inhibition at 0.1 µM [1]: 97%; inhibition at 0.01 µM [1]: 94%
CCCN1C(=O)N2CCN=C2c2[nH]c(-c3ccc(Br)cc3)nc21.Cl [Compound 5, 2-(p-Bromophenyl)-4-propyl-1,4,7,8-tetrahydro-5H-imidazo [2,1-i]purine-5-one hydrochloride] | – | – | (A) The number of scratching behavior/10 minutes ([2]; 30 mg/kg p.o.): 10.70 ± 4.45 /10 minutes; (B) The rate of inhibition (%) ([2]; 30 mg/kg p.o.): 34.0%; (A) The number of scratching behavior/10 minutes ([2]; 100 mg/kg p.o.): 7.60 ± 3.12 /10 minutes; (B) The rate of inhibition (%) ([2]; 100 mg/kg p.o.): 53.1%; (A) The number of scratching behavior/10 minutes ([2]; 300 mg/kg p.o.): 6.00 ± 2.88 /10 minutes; (B) The rate of inhibition (%) ([2]; 300 mg/kg p.o.): 63.0%; ED50 ([2]; Mus musculus, po, calculated from the rate of inhibition): 96.8 mg/kg; inhibitory action on the compound 48/80 induced itching ([2]; p.o., mice): exhibited its inhibitory action; death of the mice (ddY mice): no death was observed
CCN1C(=O)N2CCN=C2c2[nH]c(-c3ccc(Br)cc3)nc21 [Compound 1, 2-(p-Bromophenyl)-4-ethyl-1,4,7,8-tetrahydro-5H-imidazo[2,1-i]purine-5-one hydrochloride] | – | – | inhibition at 0.1 µM [1]: 97%; inhibition at 0.01 µM [1]: 88%
CCCN1C(=O)N2C[C@@H](c3ccccc3)N=C2c2[nH]c(-c3ccc(Br)cc3)nc21 [Compound 35, (R)-2-(p-Bromophenyl)-8-phenyl-4-propyl-1,4,7,8-tetrahydro-5H-imidazo[2,1-i]-purine-5-one] | 52% | 94% | –
CCCCN1C(=O)N2CCN=C2c2[nH]c(-c3ccc(Br)cc3)nc21 [Compound 26, 2-(p-Bromophenyl)-4-n-butyl-1,4,7,8-tetrahydro-5H-imidazo[2,1-i]purine-5-one hydrochloride] | – | – | inhibition at 0.01 µM [1]: 85%
CCOC(=O)/C=C/c1ccc(-c2nc3c([nH]2)C2=NC(CC)CN2C(=O)N3CC)cc1 (centres unmarked) [Compound 16, Ethyl (E)-4-(4,8-diethyl-1,4,7,8-tetrahydro-5H-imidazo-[2,1-i]purine-5-one-2-yl)cinnamate] | 92% | 17% | –

The next lines start with results.

inhibition at 0.1 µM [1, 3] | inhibition at 0.01 µM [1, 4] | Compound | other results
55% | 29% | CCOC(=O)/C=C/c1ccc(-c2nc3c([nH]2)C2=NCCCN2C(=O)N3CC)cc1 [Compound 14, Ethyl (E)-4-(4-ethyl-1,4,5,7,8,9-hexahydropyrimido [2,1-i]purine-5-one-2-yl)cinnamate] | –
55% | 29% | CCN1C(=O)N2CCCN=C2c2[nH]c(-c3ccc(Br)cc3)nc21 [Compound 2, 2-(p-Bromophenyl)-4-ethyl-1,4,5,7,8,9-hexahydropyrimido [2,1-i]purine-5-onehydrochloride] | –
95% | 89% | CCCN1C(=O)N2C[C@H](C(C)C)N=C2c2[nH]c(-c3ccc(Br)cc3)nc21 [Compound 33, (S)-2-(p-Bromophenyl)-8-isopropyl-4-propyl-1,4,7,8-tetrahydro-5H-imidazo[2,1-i]purine-5-one] | –
66% | 21% | CCN1C(=O)N2CCCN=C2c2[nH]c(-c3ccc(/C=C/C(=O)O)cc3)nc21 [Compound 15, (E)-4-(4-Ethyl-1,4,5,7,8,9-hexahydropyrimido [2,1-i]-purine-5-one-2-yl)cinnamic acid] | –
120% | 84% | CCCN1C(=O)N2C[C@@H](C(C)C)N=C2c2[nH]c(-c3ccc(Br)cc3)nc21 [Compound 32, (R)-2-(p-Bromophenyl)-8-isopropyl-4-propyl-1,4,7,8-tetrahydro-5H-imidazo[2,1-i]purine-5-one] | –
70% | 36% | CCC1CN2C(=O)N(CC)c3nc(-c4ccc(/C=C/C(=O)O)cc4)[nH]c3C2=N1 (centres unmarked) [Compound 17, (E)-4-(4,8-Diethyl-1,4,7,8-tetrahydro-5H-imidazo [2,1-i]-purine-5-one-2-yl)cinnamic acid] | –
76% | 75% | CCOC(=O)/C=C/c1ccc(-c2nc3c([nH]2)C2=NCCN2C(=O)N3CC)cc1 [Compound 13, Ethyl (E)-4-(4-ethyl-1,4,7,8-tetrahydro-5H-imidazo [2,1-i]purine-5-one-2-yl)cinnamate] | –
– | 98% | CCCN1C(=O)N2CCCN=C2c2[nH]c(-c3ccc(Br)cc3)nc21 [Compound 6, hydrochloride] | –
